Laboratory results published in patent publication US9302991B2, “Arylamide derivatives as TTX-S blockers” (RaQualia Pharma Inc., priority 2010, dated 2016).

target: T1, human Nav1.3 channels (Homo sapiens, UniProt Q9NY46); assay: FRET assay, human Nav1.3 (EFS on FDSS); assay type: cell-based; settings: HEK293 cells expressing human Nav1.3, read-out: IC50 against Nav1.3
T1 construct: expressed in transfected cells; host or cells: HEK293
Experimental: The inhibitory activities of compounds against voltage gated sodium channels are determined by methodology well known in the art.
The ability of the aryl substituted carboxamide derivatives of the formula (I) to inhibit the NaV1.3, Nav1.7 and Nav1.5 channels is measured by Fluorescence Resonance Energy Transfer (FRET) assay and electrophysiology assay described below.
This screen is used to determine the effects of compounds on human Nav1.3, human Nav1.7, and human Nav1.5 channels, utilising electrical field stimulation (EFS) system in 96-well plate format on FDSS (Hamamatsu Photonics) platform. The change of membrane potential is monitored with FRET dye pair, oxonol (DiSBAC2(3)) and coumarin (CC2-DMPE).
Each HEK293 cells expressing human Nav1.3 channels and HEK293 cells expressing human Nav1.5 channels are grown in T225 flasks, in a 5% CO2 humidified incubator to about 80% confluence. Media composition consists of Dulbecco's Modified Eagle Medium (high glucose), 10% FCS, 100 units/mL Penicillin, 100 microgram/mL Streptomycin and 500 microgram/mL Geneticine.
Protocol: • Seed each cell lines (1×10^5 cells/well) into poly-D-lysine coated 96-well plates prior to experimentation. • Incubate at 37° C. in 5% CO2 for 24 hours. • Wash each well with assay buffer (140 mM NaCl, 4.5 mM KCl, 10 mM D-Glucose, 2 mM CaCl2, 1 mM MgCl2, 10 mM HEPES, pH 7.4 adjusted with NaOH) twice. • Add 1st loading solution containing 10 microM CC2-DMPE and 0.06% Pluronic F-127 in assay buffer. • Incubate the plate at room temperature in dark for 1 hour. • Remove 1st loading solution and added 2nd loading solution containing 15 microM DiSBAC2(3), 0.555 mM VABSC-1 and 0.004% Pluronic F-127 in assay buffer. • Place the plate under the dark at room temperature for 25 minutes. • Add compound solutions into the assay plate. • Set the assay plate in FDSS and placed an EFS device on the plate. • Measure EFS-induced fluorescent response by FDSS.
The data are analyzed and reported as normalized ratios of intensities measured at […]. The process of calculating these ratios is performed as follows:
This analysis is performed using a computerized specific program designed for FDSS generated data. Fluorescence ratio values are plotted using XLfit to determine an IC50 value for each compound.

T1 sequence (Q9NY46 whole entry): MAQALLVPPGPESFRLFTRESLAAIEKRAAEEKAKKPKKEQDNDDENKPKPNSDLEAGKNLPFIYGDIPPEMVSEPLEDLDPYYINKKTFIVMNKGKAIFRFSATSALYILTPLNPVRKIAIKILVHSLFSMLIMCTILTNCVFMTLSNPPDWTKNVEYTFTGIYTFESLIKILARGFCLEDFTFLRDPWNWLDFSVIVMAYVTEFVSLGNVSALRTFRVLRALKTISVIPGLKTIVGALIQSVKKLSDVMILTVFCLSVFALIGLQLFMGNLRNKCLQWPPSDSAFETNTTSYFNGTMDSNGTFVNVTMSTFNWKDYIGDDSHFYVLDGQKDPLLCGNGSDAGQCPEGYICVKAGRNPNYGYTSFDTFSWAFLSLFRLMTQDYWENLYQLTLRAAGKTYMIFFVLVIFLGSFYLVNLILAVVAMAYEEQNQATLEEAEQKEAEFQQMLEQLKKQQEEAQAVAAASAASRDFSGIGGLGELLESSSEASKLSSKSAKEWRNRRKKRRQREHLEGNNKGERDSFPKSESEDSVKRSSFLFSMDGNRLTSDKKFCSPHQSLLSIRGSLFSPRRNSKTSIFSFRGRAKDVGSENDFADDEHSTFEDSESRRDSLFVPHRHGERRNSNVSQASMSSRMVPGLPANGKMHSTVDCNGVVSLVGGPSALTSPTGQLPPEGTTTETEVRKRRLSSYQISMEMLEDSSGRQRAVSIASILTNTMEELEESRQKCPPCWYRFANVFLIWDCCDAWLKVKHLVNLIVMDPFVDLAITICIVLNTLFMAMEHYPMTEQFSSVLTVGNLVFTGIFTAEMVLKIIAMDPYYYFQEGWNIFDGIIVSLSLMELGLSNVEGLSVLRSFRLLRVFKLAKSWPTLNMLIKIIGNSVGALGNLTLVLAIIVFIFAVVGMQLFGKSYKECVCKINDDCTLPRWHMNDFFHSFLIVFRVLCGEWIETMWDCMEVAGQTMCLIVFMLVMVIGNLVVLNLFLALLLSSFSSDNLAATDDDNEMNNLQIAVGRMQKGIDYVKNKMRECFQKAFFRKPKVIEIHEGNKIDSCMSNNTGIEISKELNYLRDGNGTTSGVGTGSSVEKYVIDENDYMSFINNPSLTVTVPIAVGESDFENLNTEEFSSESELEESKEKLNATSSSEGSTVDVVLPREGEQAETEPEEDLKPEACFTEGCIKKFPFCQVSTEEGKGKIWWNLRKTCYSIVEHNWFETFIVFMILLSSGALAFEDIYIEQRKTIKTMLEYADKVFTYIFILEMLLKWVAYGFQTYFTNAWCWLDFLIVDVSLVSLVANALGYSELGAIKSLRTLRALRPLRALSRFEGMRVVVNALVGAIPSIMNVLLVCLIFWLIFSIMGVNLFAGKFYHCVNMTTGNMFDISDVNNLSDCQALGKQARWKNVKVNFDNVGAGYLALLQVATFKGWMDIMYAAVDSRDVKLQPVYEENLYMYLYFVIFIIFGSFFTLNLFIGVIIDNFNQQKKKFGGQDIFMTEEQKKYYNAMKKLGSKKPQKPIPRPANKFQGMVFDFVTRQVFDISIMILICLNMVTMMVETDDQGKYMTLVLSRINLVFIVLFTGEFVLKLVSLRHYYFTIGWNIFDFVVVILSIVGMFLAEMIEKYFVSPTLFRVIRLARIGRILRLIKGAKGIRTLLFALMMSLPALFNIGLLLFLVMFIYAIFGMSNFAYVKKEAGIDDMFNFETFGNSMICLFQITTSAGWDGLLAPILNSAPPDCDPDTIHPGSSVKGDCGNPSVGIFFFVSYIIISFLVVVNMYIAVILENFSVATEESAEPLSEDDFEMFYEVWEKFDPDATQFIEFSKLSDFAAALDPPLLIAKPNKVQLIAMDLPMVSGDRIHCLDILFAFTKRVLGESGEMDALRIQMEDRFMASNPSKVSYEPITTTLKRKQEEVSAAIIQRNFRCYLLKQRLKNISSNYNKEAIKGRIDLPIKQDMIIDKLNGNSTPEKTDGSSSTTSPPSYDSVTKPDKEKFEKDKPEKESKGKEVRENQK

IC50, < 1000 nM:
O=C(NCc1cc(C(F)(F)F)ccc1F)c1ccnc(NC(=O)C2CC2)c1 [Example 573, 2-(cyclopropanecarboxamido)-N-(2-fluoro-5-(trifluoromethyl)benzyl)isonicotinamide]
CC(=O)Nc1cc(C(=O)NCc2cccc(OCC(F)(F)F)n2)cc(C)n1 [Example 466, 2-acetamido-6-methyl-N-((6-(2,2,2-trifluoroethoxy)pyridin-2-yl)methyl)isonicotinamide]
CC(=O)Nc1cc(C(=O)NCc2cnc(OCC(F)F)c(C)c2)cc(C)n1 [Example 742, 2-acetamido-N-((6-(2,2-difluoroethoxy)-5-methylpyridin-3-yl)methyl)-6-methylisonicotinamide]
Cc1cc(C(=O)NCc2cccc(OCC(F)(F)F)n2)cc(NC(=O)C(C)C)n1 [Example 496, 2-isobutyramido-6-methyl-N-((6-(2,2,2-trifluoroethoxy)pyridin-2-yl)methyl)isonicotinamide]
Cc1cc(CNC(=O)c2ccnc(NC(=O)C(C)C)c2)nc(OCC(F)(F)F)c1 [Example 576, 2-isobutyramido-N-((4-methyl-6-(2,2,2-trifluoroethoxy)pyridin-2-yl)methyl)isonicotinamide]
CCC(=O)Nc1cc(C(=O)NCc2cnc(OCC(F)(F)F)c(CC)c2)ccn1 [Example 710, N-((5-ethyl-6-(2,2,2-trifluoroethoxy)pyridin-3-yl)methyl)-2-propionamidoisonicotinamide]
CCC(=O)Nc1cc(C(=O)NC(C)c2ccc(OCC(F)(F)C(F)(F)F)nc2)cc(C)n1 (single isomer, unassigned) [Example 692, 2-methyl-N-(1-(6-(2,2,3,3,3-pentafluoropropoxy)pyridin-3-yl)ethyl)-6-propionamidoisonicotinamide]
Cc1cc(C(C)NC(=O)c2ccc3cccc(O)c3n2)cnc1OCC(F)(F)F (single isomer, unassigned) [Example 535, 8-hydroxy-N-(1-(5-methyl-6-(2,2,2-trifluoroethoxy)pyridin-3-yl)ethyl)quinoline-2-carboxamide]
Cc1cc(C(=O)NCc2cccc(OC(F)(F)F)c2F)cc(NC(=O)C(C)C)n1 [Example 752, N-(2-fluoro-3-(trifluoromethoxy)benzyl)-2-isobutyramido-6-methylisonicotinamide]
CC(NC(=O)c1ccnc(NC(=O)C2CC2)n1)c1ccc(OCC(F)(F)C(F)(F)F)nc1 (single isomer, unassigned) [Example 694, 2-(cyclopropanecarboxamido)-N-(1-(6-(2,2,3,3,3-pentafluoropropoxy)pyridin-3-yl)ethyl)pyrimidine-4-carboxamide]
O=C(NCc1cc(C(F)(F)F)cc(C(F)(F)F)c1)c1ccnc(NC(=O)C2CC2)n1 [Example 736, N-(3,5-bis(trifluoromethyl)benzyl)-2-(cyclopropanecarboxamido)pyrimidine-4-carboxamide]
O=C(NCc1cnc(OCC(F)(F)F)c(Cl)c1)c1ccnc(NC(=O)C2CC2)c1 [Example 95, N-((5-chloro-6-(2,2,2-trifluoroethoxy)pyridin-3-yl)methyl)-2-(cyclopropanecarboxamido)isonicotinamide]
Cc1cc(C(=O)NCc2cnc(OCC(F)(F)F)cc2C)cc(NC(=O)C(C)C)n1 [Example 516, 2-isobutyramido-6-methyl-N-((4-methyl-6-(2,2,2-trifluoroethoxy)pyridin-3-yl)methyl)isonicotinamide]
CCc1cc(CNC(=O)c2cc(C)nc(NC(C)=O)c2)cnc1OCC(F)(F)F [Example 713, 2-acetamido-N-((5-ethyl-6-(2,2,2-trifluoroethoxy)pyridin-3-yl)methyl)-6-methylisonicotinamide]
Cc1ccc(OCC(F)(F)F)nc1CNC(=O)c1ccnc(NC(=O)C(C)C)c1 [Example 566, 2-isobutyramido-N-((3-methyl-6-(2,2,2-trifluoroethoxy)pyridin-2-yl)methyl)isonicotinamide]
Cc1cc(CNC(=O)c2ccnc(NC(=O)C3CC3)n2)ccc1OCC(F)(F)F [Example 779, 2-(cyclopropanecarboxamido)-N-(3-methyl-4-(2,2,2-trifluoroethoxy)benzyl)pyrimidine-4-carboxamide]
CCc1cc(CNC(=O)c2ccnc(NC(=O)C3CC3)c2)cnc1OCC(F)(F)F [Example 711, 2-(cyclopropanecarboxamido)-N-((5-ethyl-6-(2,2,2-trifluoroethoxy)pyridin-3-yl)methyl)isonicotinamide]
CC(C)C(=O)Nc1cc(C(=O)NCc2ccc(OCC(F)(F)C(F)(F)F)nc2)ccn1 [Example 641, 2-isobutyramido-N-((6-(2,2,3,3,3-pentafluoropropoxy)pyridin-3-yl)methyl)isonicotinamide]
CCC(=O)Nc1cc(C(=O)NCc2cccc(OC(F)(F)F)c2F)ccn1 [Example 747, N-(2-fluoro-3-(trifluoromethoxy)benzyl)-2-propionamidoisonicotinamide]
CCC(=O)Nc1cc(C(=O)NCc2cc(OC(F)(F)F)ccc2F)cc(C)n1 [Example 609, N-(2-fluoro-5-(trifluoromethoxy)benzyl)-2-methyl-6-propionamidoisonicotinamide]
Cc1cc(CNC(=O)c2ccnc(NC(=O)C3CC3)c2)cc(OC(F)(F)F)c1 [Example 599, 2-(cyclopropanecarboxamido)-N-(3-methyl-5-(trifluoromethoxy)benzyl)isonicotinamide]
Cc1cc(CNC(=O)c2ccnc(NC(=O)C3CC3)c2)cnc1OCC(F)F [Example 739, 2-(cyclopropanecarboxamido)-N-((6-(2,2-difluoroethoxy)-5-methylpyridin-3-yl)methyl)isonicotinamide]
CCc1cc(CNC(=O)c2ccnc(NC(=O)C3CC3)n2)cnc1OCC(F)(F)F [Example 717, 2-(cyclopropanecarboxamido)-N-((5-ethyl-6-(2,2,2-trifluoroethoxy)pyridin-3-yl)methyl)pyrimidine-4-carboxamide]
CCC(=O)Nc1cc(C(=O)NCc2cc(C(F)(F)F)ccc2F)ccn1 [Example 572, N-(2-fluoro-5-(trifluoromethyl)benzyl)-2-propionamidoisonicotinamide]
CC(=O)Nc1cc(C(=O)NCc2cnc(OCC(F)(F)F)c(C(F)(F)F)c2)cc(C)n1 [Example 727, 2-acetamido-6-methyl-N-((6-(2,2,2-trifluoroethoxy)-5-(trifluoromethyl)pyridin-3-yl)methyl)isonicotinamide]
Cc1cc(C(=O)NCc2cc(C(F)(F)F)ccc2F)cc(NC(=O)C(C)C)n1 [Example 575, N-(2-fluoro-5-(trifluoromethyl)benzyl)-2-isobutyramido-6-methylisonicotinamide]
CCNC(=O)c1cc(C(=O)NCc2ccc(OCC(F)(F)F)nc2OC)cc(C)n1 [Example 508, N2-ethyl-N4-((2-methoxy-6-(2,2,2-trifluoroethoxy)pyridin-3-yl)methyl)-6-methylpyridine-2,4-dicarboxamide]
CC(C)C(=O)Nc1cc(C(=O)NCc2cccc(OC(F)(F)F)c2F)ccn1 [Example 750, N-(2-fluoro-3-(trifluoromethoxy)benzyl)-2-isobutyramidoisonicotinamide]
Cc1cc(CNC(=O)c2ccnc(NC(=O)C3CC3)c2)nc(OCC(F)(F)F)c1 [Example 578, 2-(cyclopropanecarboxamido)-N-((4-methyl-6-(2,2,2-trifluoroethoxy)pyridin-2-yl)methyl)isonicotinamide]
Cc1cc(CNC(=O)c2ccnc(NC(=O)C3CC3)n2)cc(OC(F)(F)F)c1 [Example 604, 2-(cyclopropanecarboxamido)-N-(3-methyl-5-(trifluoromethoxy)benzyl)pyrimidine-4-carboxamide]
CCC(=O)Nc1cc(C(=O)NCc2ccc(OCC(F)(F)F)nc2)ccn1 [Example 151, 2-propionamido-N-((6-(2,2,2-trifluoroethoxy)pyridin-3-yl)methyl)isonicotinamide]
